Laboratory results as given in patent US20240150377A1, “MODULATORS OF CYSTIC FIBROSIS TRANSMEMBRANE CONDUCTANCE REGULATOR” (VERTEX PHARMACEUTICALS INCORPORATED, priority 2020, published 2024).
Read-outs that look alike come from different tables or passages of the source.

Assays:
CFTR [1] = biological target: T1, CFTR (Homo sapiens, UniProt P13569, DEL508-508); test: HBE assay: Ussing chamber assay of CFTR-mediated short-circuit currents; assay type: cell-based; settings: for activation at 10 µM: read-out: HBE Activity at 10 μM (%); for Emax: read-out: HBE Max activity (%)
T1 construct: endogenous in cells; host or cells: primary human bronchial epithelial cells from CF subjects (F508del/MF-HBE), differentiated at air-liquid interface
T1 sequence (P13569 with tags, fused parts or gaps DEL508-508): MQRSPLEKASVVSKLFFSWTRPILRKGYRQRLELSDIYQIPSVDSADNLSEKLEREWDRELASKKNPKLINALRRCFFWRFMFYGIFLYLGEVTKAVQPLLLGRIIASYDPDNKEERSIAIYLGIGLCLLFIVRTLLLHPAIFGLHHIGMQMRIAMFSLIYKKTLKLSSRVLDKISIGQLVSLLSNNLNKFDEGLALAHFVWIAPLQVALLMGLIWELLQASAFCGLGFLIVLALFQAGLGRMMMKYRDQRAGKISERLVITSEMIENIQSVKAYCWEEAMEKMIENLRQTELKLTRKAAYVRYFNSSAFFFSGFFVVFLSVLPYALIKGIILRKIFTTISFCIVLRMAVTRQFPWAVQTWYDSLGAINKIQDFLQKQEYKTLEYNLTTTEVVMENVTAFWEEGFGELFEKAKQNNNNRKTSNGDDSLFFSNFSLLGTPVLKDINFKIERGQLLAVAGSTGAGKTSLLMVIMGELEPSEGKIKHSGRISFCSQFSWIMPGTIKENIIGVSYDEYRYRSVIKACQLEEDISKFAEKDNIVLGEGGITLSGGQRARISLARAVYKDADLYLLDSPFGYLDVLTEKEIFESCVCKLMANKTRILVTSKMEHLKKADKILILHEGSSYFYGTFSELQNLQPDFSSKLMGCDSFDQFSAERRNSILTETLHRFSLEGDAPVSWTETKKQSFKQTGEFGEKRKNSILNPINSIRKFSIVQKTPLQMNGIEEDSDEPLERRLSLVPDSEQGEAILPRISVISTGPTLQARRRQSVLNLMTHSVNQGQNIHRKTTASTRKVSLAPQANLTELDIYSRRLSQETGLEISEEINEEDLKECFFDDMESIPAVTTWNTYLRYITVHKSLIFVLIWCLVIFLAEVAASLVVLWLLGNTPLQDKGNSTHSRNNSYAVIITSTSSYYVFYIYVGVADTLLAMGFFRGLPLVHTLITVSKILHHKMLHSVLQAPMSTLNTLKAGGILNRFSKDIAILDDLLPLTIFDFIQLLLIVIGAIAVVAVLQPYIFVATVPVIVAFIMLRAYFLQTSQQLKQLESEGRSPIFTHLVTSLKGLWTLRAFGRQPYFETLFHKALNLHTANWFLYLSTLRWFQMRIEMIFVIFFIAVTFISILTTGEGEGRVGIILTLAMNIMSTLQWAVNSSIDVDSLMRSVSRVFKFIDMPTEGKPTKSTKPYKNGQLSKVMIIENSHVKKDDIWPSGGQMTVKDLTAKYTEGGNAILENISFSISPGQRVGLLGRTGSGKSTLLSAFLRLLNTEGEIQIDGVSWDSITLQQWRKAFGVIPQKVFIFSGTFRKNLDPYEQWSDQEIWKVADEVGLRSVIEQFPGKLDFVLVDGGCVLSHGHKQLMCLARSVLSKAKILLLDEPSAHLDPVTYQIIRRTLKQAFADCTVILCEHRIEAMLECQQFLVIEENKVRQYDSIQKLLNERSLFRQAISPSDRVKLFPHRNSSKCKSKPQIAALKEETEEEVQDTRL
Method in brief: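 CFTR-mediated Isc (μA/cm²) equals the peak response to apical 20 μM forskolin minus the residual after a 20 μM each BPO/GlyH-101/CFTR inhibitor 172 cocktail, recorded in Ussing chambers at Vhold 0 mV, 37 °C, pH 7.4, with 30 μM apical amiloride. Cells were F508del/MF HBE cultures preincubated 18-24 h with corrector (concentration range or 10 μM) plus 1 μM ivacaftor in 20% human serum.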

CFTR [2] = biological target: T1, CFTR; test: HBE2 assay: Ussing chamber assay of CFTR-mediated short-circuit currents; assay type: cell-based; settings: F508del/MF-HBE cells, with 44 nM potentiator, 18-24 hours, 20% human serum; for Emax: read-out: HBE2 Max activity (%)
Method in brief: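 F508del/MF-HBE cultured >14 days at air-liquid interface, mounted in Ussing chambers; transepithelial short-circuit current recorded under voltage clamp (Vhold=0 mV) at 37 °C. CFTR-mediated ISC (μA/cm^2) taken as peak forskolin response relative to steady-state current after inhibition; corrector activity assessed this way.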

activation at 10 µM (CFTR [1]; HBE assay, 10 μM)	HBE2 Activity at 3 μM (%) (CFTR [2]; 3 μM)	Compound	also measured
> 60%	+++ (+++ is >60+)	CCC(C)Oc1cnc(CN2C(=O)c3cccc(c3)S(=O)(=O)Nc3nc(cc(-c4c(C)cccc4C)n3)OC[C@H]2CCC(C)C)nc1 (stereo partly shown) [Compound 1528]	–
> 60%	+++ (+++ is >60+)	Cc1cccc(C)c1-c1cc2nc(n1)NS(=O)(=O)c1cccc(c1)C(=O)N(Cc1ccc3cc(C4CC4)n(C)c3n1)[C@H](CC(C)(C)C)CO2 [Compound 1304, (11R)-12-[(2-Cyclopropyl-1-methyl-pyrrolo[2,3-b]pyridin-6-yl)methyl]-6-(2,6-dimethylphenyl)-11-(2,2-dimethylpropyl)-2,2-dioxo-9-oxa-2λ^6-thia-3,5,12,19-tetrazatricyclo[12.3.1.14,8]nonadeca-1(18),4(19),5,7,14,16-hexaen-13-one]	–
> 60%	+++ (+++ is >60+)	Cc1cccc(C)c1-c1cc2nc(n1)NS(=O)(=O)c1cccc(c1)C(=O)N(Cc1ncc(N3CC(C)(C)C3)cn1)[C@H](CC(C)(C)C(F)(F)F)CO2 [Compound 1520]	–
> 60%	–	Cc1cccc(C)c1-c1cc2nc(n1)NS(=O)(=O)c1cccc(c1)C(=O)N(Cc1cncc(N(C)CC(C)C)n1)[C@H](CC(C)(C)C)CO2 [Compound 1519]	EC50 (CFTR [2]): < 1000 nM; Emax (CFTR [2]): > 60%
–	–	Cc1cccc(C)c1-c1cc2nc(n1)NS(=O)(=O)c1cccc(c1)C(=O)N(Cc1cncc(N3CCCC[C@H]3C)n1)[C@H](CC(C)(C)C)CO2 [Compound 1506]	activation at 10 µM (CFTR [1]): > 60%; EC50 (CFTR [2]): < 1000 nM; Emax (CFTR [2]): > 60%
–	–	Cc1cccc(C)c1-c1cc2nc(n1)NS(=O)(=O)c1cccc(c1)C(=O)N(Cc1cncc(N3CC[C@H]3C)n1)[C@H](CC(C)(C)C)CO2 [Compound 1512]	activation at 10 µM (CFTR [1]): > 60%; EC50 (CFTR [2]): < 1000 nM; Emax (CFTR [2]): > 60%
> 60%	+++ (+++ is >60+)	COC(=O)N(C)c1cnc(CN2C(=O)c3cccc(c3)S(=O)(=O)Nc3nc(cc(-c4c(C)cccc4C)n3)OC[C@H]2CC(C)(C)C)nc1 [Compound 1517]	–
> 60%	–	Cc1cccc(C)c1-c1cc2nc(n1)NS(=O)(=O)c1cccc(c1)C(=O)N(Cc1ccnc(N(C)C3CC4(CC4)C3)n1)[C@H](CC(C)(C)C)CO2 [Compound 1448]	EC50 (CFTR [2]): < 1000 nM; Emax (CFTR [2]): > 60%
> 60%	+++ (+++ is >60+)	CC[C@H](C)Oc1cnc(CN2C(=O)c3cccc(c3)S(=O)(=O)Nc3nc(cc(-c4c(C)cccc4C)n3)OC[C@H]2CCC(C)(C)C)nc1 [Compound 1547]	–
–	+++ (+++ is >60+)	COC[C@@H](C)N(C)c1cncc(CN2C(=O)c3cccc(c3)S(=O)(=O)Nc3nc(cc(-c4c(C)cccc4C)n3)OC[C@H]2CC(C)(C)C)n1 [Compound 1493]	EC50 (CFTR [1]; HBE assay, read-out: HBE EC50): < 1 µM; Emax (CFTR [1]; HBE assay): > 60%
> 60%	–	Cc1cccc(C)c1-c1cc2nc(n1)NS(=O)(=O)c1cccc(c1)C(=O)N(Cc1ncc(N(C)C(=O)OC(C)C)cn1)[C@H](CC(C)(C)C)CO2 [Compound 1518]	Emax (CFTR [2]): > 60%
–	+++ (+++ is >60+)	CC[C@@H]1CCCN1c1cncc(CN2C(=O)c3cccc(c3)S(=O)(=O)Nc3nc(cc(-c4c(C)cccc4C)n3)OC[C@H]2CC(C)(C)C)n1 [Compound 1496]	EC50 (CFTR [1]; HBE assay, read-out: HBE EC50): < 1 µM; Emax (CFTR [1]; HBE assay): > 60%
> 60%	+++ (+++ is >60+)	CC[C@H](C)Oc1cnc(CN2C(=O)c3cccc(c3)S(=O)(=O)Nc3nc(cc(-c4c(C)cccc4C)n3)OC[C@H]2CC2(C)CC2)nc1 [Compound 1546]	–
> 60%	+++ (+++ is >60+)	Cc1cccc(C)c1-c1cc2nc(n1)NS(=O)(=O)c1cccc(c1)C(=O)N(Cc1cncc(N(C)CC3CC3)n1)[C@H](CC(C)(C)C)CO2 [Compound 1507]	–
> 60%	+++ (+++ is >60+)	CCCOc1cnc(CN2C(=O)c3cccc(c3)S(=O)(=O)Nc3nc(cc(-c4c(C)cccc4C)n3)OC[C@H]2CC(C)C)nc1 [Compound 1523]	–
> 60%	+++ (+++ is >60+)	CCCOc1cnc(CN2C(=O)c3cccc(c3)S(=O)(=O)Nc3nc(cc(-c4c(C)cccc4C)n3)OC[C@H]2CC2CCC2)nc1 [Compound 1522]	EC50 (CFTR [2]): < 1000 nM; Emax (CFTR [2]): > 60%
> 60%	+++ (+++ is >60+)	COCC1(CN(C)c2cncc(CN3C(=O)c4cccc(c4)S(=O)(=O)Nc4nc(cc(-c5c(C)cccc5C)n4)OC[C@H]3CC(C)(C)C)n2)CC1 [Compound 1492]	EC50 (CFTR [1]; HBE assay, read-out: HBE EC50): < 1 µM; Emax (CFTR [1]; HBE assay): > 60%
> 60%	+++ (+++ is >60+)	Cc1cccc(C)c1-c1cc2nc(n1)NS(=O)(=O)c1cccc(c1)C(=O)N(Cc1ncc(N3CC(C)(C)C3)cn1)[C@H](CC1(C(F)(F)F)CC1)CO2 [Compound 1529]	–
–	–	Cc1cccc(C)c1-c1cc2nc(n1)NS(=O)(=O)c1cccc(c1)C(=O)N(Cc1cnc(C)c(N3CC[C@H]3C)n1)[C@H](CC(C)(C)C)CO2 [Compound 1833]	HBE2 Activity at 3 μM (%) (CFTR [2]; 3 μM corrector): +++ (+++ is >60+)
–	–	CO[C@@H](C)[C@@H]1CCCN1c1cncc(CN2C(=O)c3cccc(c3)S(=O)(=O)Nc3nc(cc(-c4c(C)cccc4C)n3)OC[C@H]2CCC(C)(C)C)n1 [Compound 1936]	HBE2 Activity at 3 μM (%) (CFTR [2]; 3 μM corrector): +++ (+++ is >60+)
–	–	Cc1cccc(C)c1-c1cc2nc(n1)NS(=O)(=O)c1cccc(c1)C(=O)N(Cc1cncc(N(C)C3CCC3)n1)[C@@H]1CN(C3CC4(CC4)C3)C[C@H]1O2 [Compound 1742]	HBE2 Activity at 3 μM (%) (CFTR [2]; 3 μM corrector): +++ (+++ is >60+)
–	–	Cc1cccc(C)c1-c1cc2nc(n1)NS(=O)(=O)c1cccc(c1)C(=O)N(Cc1cncc(N3CCC[C@H]3C)n1)[C@H](CC1CCCC1)CO2 [Compound 1888]	HBE2 Activity at 3 μM (%) (CFTR [2]; 3 μM corrector): +++ (+++ is >60+)
–	–	Cc1cccc(C)c1-c1cc2nc(n1)NS(=O)(=O)c1cccc(c1)C(=O)N(Cc1cnc3cc(C(C)C)n(C)c3n1)[C@H](COC(C)C)CO2 [Compound 1919]	HBE2 Activity at 3 μM (%) (CFTR [2]; 3 μM corrector): +++ (+++ is >60+)
–	+++ (+++ is >60+)	Cc1cccc(C)c1-c1cc2nc(n1)NS(=O)(=O)c1cccc(c1)C(=O)N(Cc1cncc(N3CCCC3=O)n1)[C@H](CC(C)(C)C)CO2 [Compound 1652]	–
–	+++ (+++ is >60+)	Cc1cccc(C)c1-c1cc2nc(n1)NS(=O)(=O)c1cccc(c1)C(=O)N(Cc1cncc(N3CCC4C3CC(=O)N4C)n1)[C@H](CC(C)(C)C)CO2 (stereo partly shown) [Compound 1639]	–
–	+++ (+++ is >60+)	CCCN(C)c1cncc(CN2C(=O)c3cccc(c3)S(=O)(=O)Nc3nc(cc(-c4c(C)cccc4C)n3)OC[C@H]2CC(C)(C)C)n1 [Compound 1694]	–

Compound	activation at 10 µM (CFTR [1]; HBE assay, 10 μM)	HBE2 Activity at 3 μM (%) (CFTR [2]; 3 μM)	also measured
Cc1cccc(C)c1-c1cc2nc(n1)NS(=O)(=O)c1cccc(c1)C(=O)N(Cc1cncc(N3CCC[C@H]3C3CC3)n1)[C@H](CC(C)(C)C)CO2 [Compound 1495]	–	+++ (+++ is >60+)	EC50 (CFTR [1]; HBE EC50 (μM), HBE assay): < 1 µM; Emax (CFTR [1]): > 60%
Cc1cccc(C)c1-c1cc2nc(n1)NS(=O)(=O)c1cccc(c1)C(=O)N(Cc1ncc(OC3CCCC3)c[n+]1[O-])[C@H](CC(C)C)CO2 [Compound 1305, (11R)-12-[[5-(Cyclopentoxy)-1-oxido-pyrimidin-1-ium-2-yl]methyl]-6-(2,6-dimethylphenyl)-11-isobutyl-2,2-dioxo-9-oxa-2λ^6-thia-3,5,12,19-tetrazatricyclo[12.3.1.14,8]nonadeca-1(18),4(19),5,7,14,16-hexaen-13-one]	–	+++ (+++ is >60+)	–
